Like-named read-outs stand apart in the source and are kept apart here. *1 amine or outer side, *2 acyl side, *3 side chain or, on linkers, in order; H or OH if unused. Where a SMILES comes first, the peptide text is derived from it. Bridges are numbered along the chain shown (N, C = ends). Roman numbers before positions name the chains, in order. [ ]: non-standard residue; d: D form. The star is where a group is joined. Quinoxaline2carbonyl = O=C(c1cnc2ccccc2n1)*; Ethylenediamine = C(CN[*:2])N[*:1]; NMeV = CN[C@H](C(=O)O)C(C)C; NMeAbu = CC[C@H](NC)C(=O)O; NMeC = CN[C@@H](CS)C(=O)O; Abu = CC[C@H](N)C(=O)O
Assays:
[1] = test system: HT-29 colon adenocarcinoma cells; assay: cells; type: cell-based, human
Method: (§1) The twelve synthesized compounds were evaluated in vitro using the following four human cancer cell lines: cervical adenocarcinoma (HeLa), lung carcinoma (A-549), breast adenocarcinoma (SK-BR-3) and colon adenocarcinoma (HT-29). Cells were treated for 24 h with various concentrations of the compounds, and their cytotoxic activity was then assessed using the [3-(4,5-dimethylthiazol-2-yl)-2,5-diphenyltetrazolium] bromide (MTT) assay.[29] Analysis of the dose-response data obtained yielded IC50 (50% inhibitory concentration) values, which are detailed in Table 1.
(§2) Normally growing cells were plated at 5 × 10^3 cells per well into 96-well plates and incubated for 24 h at 37 °C to allow attachment to the surface. Samples were then added dissolved in a DMSO–PBS vehicle (less than 1% in culture medium) at a range of concentrations. Drugs were run in triplicate or greater and control wells contained appropriate percentages of vehicle. After 24 h of exposure, the antitumor effect was measured using a solution of MTT, which is bioreduced by viable cells into formazan. The formed crystals were solubilized using DMSO and the amount of formazan was measured by reading the absorbance at 570 nm. The absorbance of wells containing only the MTT reagent (the plate blank) was subtracted from all wells.
(§3) The IC50 values were determined by dose response curve analysis and statistical analysis using GraphPad Prism software version 5.0a. […]
(§4) mM L-glutamine and antibiotics.
(§5) in a humidified atmosphere containing 5% CO2. For sub-culturing, cells were detached from
(§6) 5 mL of fresh medium preheated at 37 °C. Cellular density was determined in a Neubauer

[2] = test system: A-549 lung carcinoma cells; assay: cells; type: cell-based, human
Method: as §1, §2, §3, §4, §5, §6

[3] = test system: HeLa cervical adenocarcinoma cells; assay: cells; type: cell-based, human
Method: as §1, §2, §3, §4, §5, §6

[4] = test system: SK-BR-3 breast adenocarcinoma cells; assay: cells; type: cell-based, human
Method: as §1, §2, §3, §4, §5, §6

red blood cells = conditions: human RBCs, PBS, 1 h at 37 °C, concentrations up to 100 μM, absorbance 560 nm, n=3
HeLa cells = assay: DEVDase (caspase 3/7) activity, Ac-DEVD-AFC substrate; type: cell-based, human; conditions: 100 nM, 16 h of treatment
Method: Data are mean ± s.e.m. […] Data are given as mean ± s.e.m. […] Non-treated cells were used as control. (F, right panel) Densitometric quantification of cleaved caspase 3 and cleaved PARP levels (relative to control, non-treated cells). β-actin was used for loading normalization. Data are mean ± s.e.m.
Thus, we used the fluorogenic substrate Ac–DEVD–AFC as an indicator of the activation of effector caspases, which are the executioners of apoptosis.
(E) HeLa cells were treated as in (D) and apoptosis was assessed by DEVDase activity (right panel) and western blot of PARP1 and caspase-3 (left panel). β-actin was used for loading normalization. Data are mean ± s.e.m.
DEVDase activity was determined in 30 g of RIPA total protein cell lysate (without protease
inhibitors). Cleavage of the fluorogenic substrated Ac-DEVD-AFC. Caspase 3 and PARP
cleavage were determined in 50 g RIPA total protein cell lysate of control and treated cells.

[5] = test system: DNA (footprinting substrates MS1 and HexA); assay: DNase I footprinting; type: binding; conditions: MS1 and HexA fragments; RZ compounds up to 500 μM (RZ2 up to 1 mM)
Description: compounds are 500 M and 100 M; the concentrations for echinomycin are 10 M and 5 M.

[6] = MTT assay, 24 h exposure, run in triplicate or greater, read-out: IC50, Colon HT-29
[7] = MTT assay, 24 h exposure, run in triplicate or greater, read-out: IC50, Lung A-549
[8] = MTT assay, 24 h exposure, run in triplicate or greater, read-out: IC50, Cervix HeLa
[9] = MTT assay, 24 h exposure, run in triplicate or greater, read-out: IC50, Breast SK-BR-3

CC[C@H](NC(=O)[C@H](CO)NC(=O)c1cnc2ccccc2n1)C(=O)N[C@H](C(=O)N[C@H](C(=O)N1CCC[C@@H]1C(=O)NCC(=O)N[C@H](C(=O)N[C@H](C(=O)N[C@@H](CC)C(=O)NCCNC(=O)c1cnc2ccccc2n1)C(C)C)C(C)C)C(C)C)C(C)C [RZ2] (Quinoxaline2carbonyl-S[Abu]VV[dP]GVV[Abu]-{Ethylenediamine-Quinoxaline2carbonyl})
IC50 [1, 6]: 6.8 µM | IC50 [2, 7]: 11.9 µM | IC50 [3, 8]: 2.7 µM | IC50 [4, 9]: 5.4 µM | hemolysis (hemoglobin release from red blood cells) (red blood cells): not hemolytic

CC[C@H](NC(=O)[C@@H](NC(=O)[C@@H](NC(=O)CNC(=O)[C@H]1CCCN1C(=O)[C@@H](NC(=O)[C@@H](NC(=O)[C@H](CC)NC(=O)[C@@H](CO)NC(=O)c1cnc2ccccc2n1)C(C)C)[C@@H](C)O)[C@@H](C)O)C(C)C)C(=O)NCCNC(=O)c1cnc2ccccc2n1 [RZ8] (Quinoxaline2carbonyl-[dS][Abu]VT[dP]GTV[Abu]-{Ethylenediamine-Quinoxaline2carbonyl})
IC50 ([1]; 24 h): 39.8 µM | IC50 ([2]; 24 h): 23.4 µM | IC50 ([3]; 24 h): 37.1 µM | IC50 ([4]; 24 h): 44.5 µM

CC[C@H](C)[C@H](NC(=O)CNC(=O)[C@H]1CCCN1C(=O)[C@@H](NC(=O)[C@H](C(C)C)N(C)C(=O)[C@H](CC)N(C)C(=O)[C@H](CO)NC(=O)c1cnc2ccccc2n1)[C@@H](C)CC)C(=O)N(C)[C@H](C(=O)N(C)[C@@H](CC)C(=O)NCCNC(=O)c1cnc2ccccc2n1)C(C)C [RZ9] (Quinoxaline2carbonyl-S[NMeAbu][NMeV]I[dP]GI[NMeV][NMeAbu]-{Ethylenediamine-Quinoxaline2carbonyl})
IC50 ([1]; 24 h): 84.4 µM | IC50 ([2]; 24 h): 60.9 µM | IC50 ([3]; 24 h): 50.9 µM | IC50 ([4]; 24 h): 90.6 µM

CC[C@H](NC(=O)[C@H](CO)NC(=O)c1cnc2ccccc2n1)C(=O)N[C@H](C(=O)N[C@H](C(=O)N1CCC[C@@H]1C(=O)NCC(=O)N[C@H](C(=O)N[C@H](C(=O)N[C@@H](CC)C(=O)NCCNC(=O)c1cnc2ccccc2n1)C(C)C)[C@@H](C)CC)[C@@H](C)CC)C(C)C [RZ10] (Quinoxaline2carbonyl-S[Abu]VI[dP]GIV[Abu]-{Ethylenediamine-Quinoxaline2carbonyl})
IC50 ([1]; 24 h): 53.8 µM | IC50 ([2]; 24 h): 26.8 µM | IC50 ([3]; 24 h): 14.1 µM | IC50 ([4]; 24 h): 62.1 µM

CC[C@H](C)[C@H](NC(=O)CNC(=O)[C@H]1CCCN1C(=O)[C@@H](NC(=O)[C@H](C(C)C)N(C)C(=O)[C@H](CC)N(C)C(=O)[C@@H](CO)NC(=O)c1cnc2ccccc2n1)[C@@H](C)CC)C(=O)N(C)[C@H](C(=O)N(C)[C@@H](CC)C(=O)NCCNC(=O)c1cnc2ccccc2n1)C(C)C [RZ11] (Quinoxaline2carbonyl-[dS][NMeAbu][NMeV]I[dP]GI[NMeV][NMeAbu]-{Ethylenediamine-Quinoxaline2carbonyl})
IC50 ([1]; 24 h): 64.7 µM | IC50 ([2]; 24 h): 96.3 µM | IC50 ([3]; 24 h): 24.3 µM | IC50 ([4]; 24 h): 78.9 µM

CC[C@H](NC(=O)[C@@H](NC(=O)[C@@H](NC(=O)CNC(=O)[C@H]1CCCN1C(=O)[C@@H](NC(=O)[C@@H](NC(=O)[C@H](CC)NC(=O)[C@@H](CO)NC(=O)c1cnc2ccccc2n1)C(C)C)[C@@H](C)CC)[C@@H](C)CC)C(C)C)C(=O)NCCNC(=O)c1cnc2ccccc2n1 [RZ12] (Quinoxaline2carbonyl-[dS][Abu]VI[dP]GIV[Abu]-{Ethylenediamine-Quinoxaline2carbonyl})
IC50 ([1]; 24 h): > 100 µM | IC50 ([2]; 24 h): 82.2 µM | IC50 ([3]; 24 h): 55.4 µM | IC50 ([4]; 24 h): 71.6 µM

CC(C)[C@H]1C(=O)OC[C@@H](NC(=O)c2cnc3ccccc3n2)C(=O)N[C@@H](C)C(=O)N(C)[C@H]2CSSC[C@@H](C(=O)N1C)N(C)C(=O)[C@H](C)NC(=O)[C@H](NC(=O)c1cnc3ccccc3n1)COC(=O)[C@H](C(C)C)N(C)C2=O [Triostin A, reference compound] (I: Quinoxaline2carbonyl-[dS]A[NMeC][NMeV] / II: Quinoxaline2carbonyl-[dS]A[NMeC][NMeV]; ester I:1-II:C, I:C-II:1; disulfide I:3-II:3)
IC50 [1, 6]: 24.7 µM | IC50 [2, 7]: 23.5 µM | IC50 [3, 8]: 18.8 µM | IC50 [4, 9]: 23.1 µM

CO/C1=C\C(C)=C\[C@@H](C)[C@@H](O)[C@@H](C)C/C(C)=C/C=C/[C@H](OC)[C@@H]([C@@H](C)[C@@H](O)[C@H](C)[C@@]2(O)C[C@@H](O)[C@H](C)[C@@H](C(C)C)O2)OC1=O [bafilomycin A1]
apoptosis induction (DEVDase activity, PARP1 and caspase-3 western blot) (HeLa cells): induces apoptosis

echinomycin
DNase I footprint (DNA binding) [5]: Clear footprints
